{
  "source": "paper PMC7815984",
  "about": "(Biochemical and biophysical research communications, 2020)",
  "key": {"[1]": {"test_system": "Human Umbilical Vein Endothelial Cells (HUVECs)", "test": "Endothelial cell tube formation assay"}, "[2]": {"test_system": "rat aortic ring microvessel outgrowth", "test": "Rat aortic ring assay of angiogenesis", "format": "cell-based, Sprague Dawley rats"}, "[3]": {"test_system": "Human Umbilical Vein Endothelial Cells (HUVECs)", "settings": "12.5–100 μM; cited from earlier work"}, "[4]": {"biological_target": "TBD (residues 319–425 of human CRBN) (Homo sapiens, UniProt Q96SW2)", "sequence (Q96SW2 319-425)": "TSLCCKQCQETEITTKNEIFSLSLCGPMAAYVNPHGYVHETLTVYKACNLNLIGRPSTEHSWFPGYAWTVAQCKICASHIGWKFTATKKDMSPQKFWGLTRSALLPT", "format": "binding", "settings": "competitive MST"}},
  "data": [
    {"smiles": "O=C1CCC(N2C(=O)c3c(F)c(F)c(F)c(F)c3C2=O)C(=O)N1", "note": "(stereo not shown) [Gu3041, 2-(2,6-Dioxo-3-piperidyl)-4,5,6,7-tetrafluoro-isoindoline-1,3-dione]", "values": [
      {"measurement": "tube formation over concentration range (in words)", "setting": "[1]; 0.1–10 μM, HUVECs", "value": "reduced tube formation in a concentration-dependent manner"}
    ]},
    {"smiles": "NC(=O)c1nnn(Cc2cc(Cl)c(C(=O)c3ccc(Cl)cc3)c(Cl)c2)c1N", "note": "[CAI, carboxyamidotriazole]", "values": [
      {"measurement": "suppression of angiogenesis (positive control)", "setting": "[2]; 30 μM CAI, 4 days", "value": 95, "unit": "%"}
    ]},
    {"smiles": "O=C1c2c(F)c(F)c(F)c(F)c2C(=O)N1c1ccc(F)cc1F", "note": "[CPS49]", "values": [
      {"measurement": "inhibition of tube formation compared with vehicle control (positive control)", "setting": "[1]; 30 μM CPS49, HUVECs, 18 hours", "value": 89, "unit": "%"}
    ]},
    {"smiles": "CO[C@@H]1[C@H](OC(=O)NC(=O)CCl)CC[C@]2(CO2)[C@H]1[C@@]1(C)O[C@@H]1CC=C(C)C", "note": "[TNP-470]", "values": [
      {"measurement": "suppression of angiogenesis (positive control)", "setting": "[2]; 50 μM TNP-470, 4 days", "value": 92, "unit": "%"}
    ]},
    {"smiles": "O=C1CCC(N2C(=O)c3ccccc3C2=O)C(=O)N1", "note": "(stereo not shown) [Thalidomide, 2-phthalimidinoglutarimide]", "values": [
      {"measurement": "microvessel outgrowth (in words)", "setting": "[2]; 100 μM, 4 days", "value": "not significantly blocked"},
      {"measurement": "antiangiogenic activity in tube formation (in words)", "setting": "[1]; 100 μM, HUVECs", "value": "did not demonstrate potent antiangiogenic activity"},
      {"measurement": "tube formation, previous results (in words)", "setting": "[3]", "value": "failed to significantly block tube formation"}
    ]},
    {"smiles": "CC(C)N1C(=O)NC(=O)C(C)(NC(=O)c2ccccc2)C1=O", "note": "(stereo not shown) [Gu3407, N-(1-Isopropyl-5-methyl-2,4,6-trioxo-hexahydropyrimidin-5-yl)benzamide]", "values": [
      {"measurement": "binding to TBD of human CRBN (in words)", "setting": "[4]", "value": "did not show any binding"},
      {"measurement": "inhibition of tube formation at initial screening dose (in words)", "setting": "[1]; 10 μM, HUVECs, 18 hours", "value": "no inhibition"},
      {"measurement": "inhibition of tube formation over concentration range (in words)", "setting": "[1]; 10–100 μM, HUVECs", "value": "no significant inhibition"}
    ]}
  ]
}
